Experiments:
Format in all cases: in vivo, human
[1] = system: healthy, young male and female adults; experiment: Bond-Lader mood scales
Procedure: (§1) In the current double-blind, placebo-controlled, balanced cross-over experiment we assessed the effects of single doses of LC (500 mg and 2000 mg) and ALC (1000 mg), administered on separate occasions, on mental fatigue and cognitive function during extended performance of mentally demanding tasks in healthy, young male and female adults.
(§2) 20 healthy adults (10 male, 10 female, 18 to 25 years) who had not taken prescription or illicit drugs or any food supplements within the preceding 4 weeks were recruited. Smokers and excessive consumers of caffeine were excluded, as were those who had consumed alcohol or caffeine within the 12 hours prior to a testing session.
Prior to and following the tasks mood was assessed with Bond and Lader scales. This measure has been utilised in numerous pharmacological, psychopharmacological and medical trials. The scales comprise a total of sixteen lines (approximately 100 mm on screen) anchored at either end by antonyms (e.g. alert-drowsy, calm-excited). Subjects indicate their current subjective position between the antonyms on the line. Individual item scores were calculated as % distance along the line. Outcomes comprised three factor analysis derived scores: ‘Alertness’, ‘Calmness’ and ‘Contentment’.
(§3) Following the introductory visit participants attended the laboratory at 8.30 am on four further occasions, one week apart, receiving a different treatment on each occasion. They fasted (no food or drink except for water) and consumed no caffeine or alcohol for at least 12 hours prior to each session. On their first study day participants were randomly allocated to a treatment regime on the Latin square. On arrival on each occasion participants consumed a standard breakfast (40 g Kellogg's All-bran with 150 ml skimmed milk and a glass of water) following which they undertook an initial cognitive/mood assessment comprising completion of the attention tasks (‘Simple’/‘Choice’/‘Four choice’ reaction time) followed by 2 completions of the 10 minute CDB tasks (the first completion was a practice and the second was used for baseline assessment of performance) and the Stroop and Logical Reasoning tasks. They then consumed their treatment for that day. At 120 minutes post-dose they completed the attention tasks then commenced the full 60 minute (i.e. 6 completions of the 10 minutes of tasks) CDB. Following completion of the CDB participants completed the ‘Logical Reasoning’ and the ‘Stroop’ executive function tasks. Mood was assessed with Bond-Lader mood scales pre-treatment and before and after the post-treatment cognitive assessment. The set-up is shown schematically in FIG. 1.
(§4) Statistical analysis for all of the cognitive/fatigue and mood measures derived from the battery were analysed by repeated measures Analysis of Variance (ANOVA) of baseline adjusted data (calculated against pre-dose). Measures with a single post-dose repetition (attention tasks, executive tasks) were analysed by one way ANOVA (condition). Measures with multiple post-dose repetitions (Mood, CDB) were analysed with two way ANOVA (condition×repetition). Planned comparisons (placebo versus each active treatment) were then undertaken on baseline adjusted data from the single completion, or each of the multiple completions, as appropriate, utilising t-tests with Mean Squares Error from the ANOVA (Keppel 1991).

[2] = system: healthy, young male and female adults; experiment: Cognitive Demand Battery (CDB), overall performance; details: for Beneficial effect on fatigue / cognitive function, overall statement: general statement, preliminary findings for acetyl-L-carnitine
Text: The working hypothesis underlying this approach is that neural activity is costly in terms of local neural resources (e.g. metabolic substrates) and that the brain is therefore liable to suffer deficiencies in the short term. Any psychoactive properties of a test substance are therefore liable to be more readily apparent during this period of intense cognitive demand and the ‘mental fatigue’ state elicited by prolonged task performance. This paradigm may therefore be more sensitive than the use of less demanding cognitive tasks, particularly if an intervention has an impact on the delivery or utilisation of metabolic substrates.
as §1, §2
Each participant received each treatment in an order counterbalanced by random allocation to a Latin square. Depending on the condition to which the participant was allocated on each day they received 4 capsules containing either 500 mg LC or 500 mg ALC or a placebo which were combined to give a total dose of either:
(§5) The objective of this battery is to assess the impact of a treatment on speed/accuracy and mental fatigue during continuous performance of cognitively demanding tasks. […] The 10 minute battery comprises:
as §3, with “Following completion of the CDB participants completed the ‘Logical Reasoning’ and the ‘Stroop’ executive function tasks.” left out, “The set-up is shown schematically in FIG. 1.” left out
(§6) Statistical analysis for all of the cognitive/fatigue and mood measures derived from the battery were analysed by repeated measures Analysis of Variance (ANOVA) of baseline adjusted data (calculated against pre-dose). Measures with a single post-dose repetition (attention tasks, executive tasks) were analysed by one way ANOVA (condition). Measures with multiple post-dose repetitions (Mood, CDB) were analysed with two way ANOVA (condition×repetition). […]

[3] = system: healthy, young male and female adults; experiment: Cognitive Demand Battery: Serial Threes subtractions
Procedure: as §1, §2, §5
Modified, two minute, computerised versions of the Serial Threes and Serial Sevens tests were utilised. For both tasks a standard instruction screen informed the participant to count backwards in threes or sevens from the given randomly generated number, as quickly and accurately as possible, using the linear number keys to enter each response. Participants were also instructed verbally that if they made a mistake they should continue subtracting from the new, incorrect number. Each three-digit response was entered using the linear number keys on the keyboard with each digit being represented on screen by an asterisk. Pressing the enter key signals the end of each response and clears the three asterisks from the screen. The task was scored for total number of subtractions and number of errors. In the case of incorrect responses, subsequent responses were scored as positive if they were correct in relation to the new number.
as §3, with “Following completion of the CDB participants completed the ‘Logical Reasoning’ and the ‘Stroop’ executive function tasks.” left out, “The set-up is shown schematically in FIG. 1.” left out
as §6

[4] = system: healthy, young male and female adults; experiment: Cognitive Demand Battery: Serial Sevens subtractions
Procedure: as §1, §2, §5
Modified, two minute, computerised versions of the Serial Threes and Serial Sevens tests were utilised. […] The task was scored for total number of subtractions and number of errors. In the case of incorrect responses, subsequent responses were scored as positive if they were correct in relation to the new number.
Following the introductory visit participants attended the laboratory at 8.30 am on four further occasions, one week apart, receiving a different treatment on each occasion. […] Mood was assessed with Bond-Lader mood scales pre-treatment and before and after the post-treatment cognitive assessment. […]
as §6

[5] = system: healthy, young male and female adults; experiment: Cognitive Demand Battery: Rapid Visual Information Processing task (RVIP)
Procedure: as §1, §2, §5
The participants monitored a continuous series of digits for targets of three consecutive odd or three consecutive even digits. The digits were presented at the rate of 100 per minute and the participants responded to the detection of a target string by pressing a response key as quickly as possible. The task is continuous and lasts for 5 minutes, with 8 correct target strings being presented in each minute. The task was scored for percentage of target strings correctly detected, average reaction time for correct detections, and number of false alarms.
as §3, §4

[6] = system: healthy, young male and female adults; experiment: Cognitive Demand Battery: subjective 'mental fatigue' scale
Procedure: as §1, §2, §5
At the end of each set of tasks participants were asked to indicate how mentally fatigued they felt by marking a 100 mm line with the end-points labelled “not at all” and “extremely”.
as §3, with “Following completion of the CDB participants completed the ‘Logical Reasoning’ and the ‘Stroop’ executive function tasks.” left out, “The set-up is shown schematically in FIG. 1.” left out
as §6

[7] = system: healthy male and female individuals aged between 20 and 40 years; experiment: CogState 12 minute Early Phase cognitive test battery
Procedure: Effects of carnitine on cognitive function were studied with a CogState™ 12 minute Early Phase cognitive test battery. The test was developed by CogState, US, and is described in U.S. Pat. No. 7,163,513 B2. The test uses playing cards and computer mazes for measuring the cognitive domains of executive function, psychomotor function, visual attention and visual learning. Tasks correspond to cognitive domains as follows: Maze learning task. […] It was carried out with 20 healthy male and female individuals aged between 20 and 40 years. The test was double-blind and placebo-controlled and studied effects of 500 mg L-carnitine, administered as 736 mg L-carnitine L-tartrate (Carnipure™ tartrate, Lonza AG) in water in a single dose. A single test battery of about 10 min comprised maze learning task, a detection task with playing cards, an identification task with playing cards and a one card learning task. Consecutive accomplishing of the test battery took place twice prior to and hourly after intake of the study preparation over a period of 6 hours.

[8] = 500 mg single dose in water, hourly over 6 hours

CC(=O)O[C@H](CC(=O)[O-])C[N+](C)(C)C [ALC, acetyl-L-carnitine]
Bond-Lader content rating compared to placebo ([1]; 1000 mg single dose, after the post-dose tasks, p=0.015): less content
Bond-Lader content rating compared to placebo ([1]; 1000 mg single dose, before the post-dose tasks, p=0.001): less content
Bond-Lader alert rating compared to placebo ([1]; 1000 mg single dose, before undertaking the post-dose tasks, p=0.009): less alert
Bond-Lader alertness (summary of findings) ([1]; 1000 mg single dose, second post-dose time-point as printed): lower levels of alertness
Performance of the CDB in comparison to placebo ([2]; 1000 mg single dose): no evidence of benefits
Beneficial effect on fatigue / cognitive function, overall statement [2]: at best moderate

C[N+](C)(C)C[C@H](O)CC(=O)[O-] [LC, L-carnitine]
Serial 3s number of subtractions compared to placebo ([3]; 500 mg single dose, 2nd repetition, p=0.08): statistical trends towards the same effect
Serial 3s number of subtractions compared to placebo ([3]; 500 mg single dose, 3rd repetition, p=0.09): statistical trends towards the same effect
Serial 3s number of subtractions compared to placebo ([3]; 500 mg single dose, 4th repetition, planned comparison p=0.006): more subtractions
Serial 3s number of subtractions compared to placebo ([3]; 500 mg single dose, 6th repetition, p=0.016): more subtractions
Serial 3s number of subtractions compared to placebo ([3]; 2000 mg single dose, 5th repetition, p=0.04, may be type 1 error): more subtractions
Serial 7s number of subtractions compared to placebo ([4]; 500 mg single dose, 2nd repetition, p=0.044): more subtractions
Serial 7s number of subtractions compared to placebo ([4]; 500 mg single dose, 4th repetition, p=0.018): more subtractions
Serial 7s number of subtractions compared to placebo ([4]; 2000 mg single dose, 4th repetition, p=0.053): trend towards more subtractions
RVIP accuracy compared to placebo ([5]; 500 mg single dose, 2nd repetition, p=0.015): outperformed placebo
RVIP speed of responses compared to placebo ([5]; 500 mg single dose, 3rd repetition, p=0.013): performed faster
RVIP accuracy compared to placebo ([5]; 500 mg single dose, 3rd repetition, p=0.036): outperformed placebo
RVIP accuracy compared to placebo ([5]; 500 mg single dose, 4th repetition, p=0.07): trend towards the same effect
RVIP speed of responses compared to placebo ([5]; 500 mg single dose, each of 6 repetitions, significant only at the 3rd): performed faster at each repetition
RVIP speed of responses compared to placebo ([5]; 2000 mg single dose, 4th repetition, p=0.089): trend towards slower responding
Subjective mental fatigue rating compared to placebo ([6]; 500 mg single dose, 4th repetition, p=0.065): trend towards the same effect
Subjective mental fatigue rating compared to placebo ([6]; 500 mg single dose, 6th repetition, p=0.033): ratings of fatigue were lower
Subjective mental fatigue rating compared to placebo ([6]; 500 mg single dose, after each repetition, numerical, significant only after the last set): numerically less ‘mentally fatigued’
Subjective mental fatigue rating compared to placebo ([6]; 2000 mg single dose, 5th repetition, p=0.02): higher than placebo
Bond-Lader content rating compared to placebo ([1]; 500 mg single dose, first (pre-task) post-dose assessment, p=0.004): less content
Bond-Lader calm rating compared to placebo ([1]; 500 mg single dose, first (pre-task) post-dose assessment, p=0.037): less calm
Bond-Lader calm rating compared to placebo ([1]; 500 mg single dose, post task assessment, p=0.016): more calm
Psychomotor function (detection task) ([7]; 500 mg single dose in water, after four, five and six hours): decrease of psychomotor function
Higher cognitive processes, such as memory and executive function ([7]; 500 mg single dose in water, at the time of decreased psychomotor function (4-6 hours)): not impaired
Visual attentional function (identification task) [7, 8]: no significant effect
Visual learning (one card learning task) [7, 8]: no significant effect
Executive function (maze learning task) ([7]; 500 mg single dose in water, two hours after intake, individuals without fatigue): some evidence for a short-acting benefit
Long time improvement of cognitive function ([7]; 500 mg single dose, beyond approximately two hours): not observed
Performance of the CDB in comparison to placebo ([2]; 500 mg single dose, planned comparisons): significant improvements in performance of the CDB
Performance of the CDB in comparison to placebo ([2]; 2000 mg single dose): no evidence of benefits
Beneficial effect on fatigue / cognitive function, overall statement [2]: pronounced
